Biological target: β1-adrenergic receptor (Homo sapiens (Human), UniProt P08588)
Assay: cAMP Gs dynamic HTRF assay, β1 expressing CHO cells
Type: cell-based
Conditions: B1-AR; CHO-K1 (HitHunter); read-out: Average pEC50 [Receptor subtype: B1-AR; Cell type: CHO-K1 (HitHunter)] (converted)
Procedure: (§1) cAMP homogeneous time-resolved fluorescence (HTRF). Compound efficacy was determined using the cAMP Gs dynamic HTRF assay (Cisbio, catalog #62AM4PEC) largely following the manufacturer's instructions, also detailed below.
(§2) Compound preparation. […] Standard serial dilution curves were 10-point, 5-fold dilutions starting from a highest concentration of 10 μM. […] Assay plates were centrifuged at 500×g for 10 seconds. Compounds and IBMX were prepared at 2× final dose to compensate for addition of cells.
(§3) Cell preparation. 1× stimulation buffer, washing PBS (Dulbecco's phosphate-buffered saline, −Mg −Ca; Caisson Labs, catalog #PBL01), assay PBS (Dulbecco's phosphate-buffered saline, +Mg, +Ca; Caisson Labs, catalog #PBL02) and Versene (0.02% EDTA disodium salt solution in PBS without calcium or magnesium; Caisson Labs, catalog #EDL01) were pre-warmed to 37° C. Cells expressing beta-adrenergic receptor were washed in washing PBS to remove growth medium and then released from the surface by incubating with Versene for 5-10 minutes at 37° C. Cells were harvested using assay PBS, counted manually by hemocytometer or by an automated cell counter, pelleted by centrifugation (200×g, 5 minutes) and resuspended in 37° C. 1× stimulation buffer to a final density of 1.5×10^6 cells/mL. 5 μL of the suspended cell solution (7500 cell total) were added to all wells of the 384 well assay plate, the assay plate was covered with an Axygen® plate seal (Corning PCR-SP) and incubated in a humidified 37° C. environment supplemented with 5% CO2 for 30 minutes.
(§4) HTRF reagent addition, reading and data analysis. After 30 minutes of cell stimulation with test compound, the assay plates were centrifuged at 500×g for 10 seconds, and incubation was stopped with the addition of 5 μL cAMP-D2 acceptor, diluted 1:21 in detection and lysis buffer 2 (Cisbio 62CL2FDF) was added to all cells. Subsequently, 5 μL Anti-cAMP-Eu Donor, diluted 1:21 in detection and lysis buffer 2, was added to cells. Plates were sealed and reactions gently ‘vortexed’ at 900 rpm on a Heidolph Titramax 1000 for at least 30 minutes at room temperature. Plates were centrifuged again at 500×g for 10 seconds, and HTRF was measured using a Tecan Spark plate reader at 50 flashes per well. […] Potency estimates (EC50) were derived from the four-parameter nonlinear regression of the concentration-effect curve and an estimate of relative efficacy was determined by comparing the magnitude of the test compound HTRF signal window (min−max dose) with the signal window of the full agonist control, isoproterenol.

Chain of β1-adrenergic receptor (P08588 whole entry, species assumed): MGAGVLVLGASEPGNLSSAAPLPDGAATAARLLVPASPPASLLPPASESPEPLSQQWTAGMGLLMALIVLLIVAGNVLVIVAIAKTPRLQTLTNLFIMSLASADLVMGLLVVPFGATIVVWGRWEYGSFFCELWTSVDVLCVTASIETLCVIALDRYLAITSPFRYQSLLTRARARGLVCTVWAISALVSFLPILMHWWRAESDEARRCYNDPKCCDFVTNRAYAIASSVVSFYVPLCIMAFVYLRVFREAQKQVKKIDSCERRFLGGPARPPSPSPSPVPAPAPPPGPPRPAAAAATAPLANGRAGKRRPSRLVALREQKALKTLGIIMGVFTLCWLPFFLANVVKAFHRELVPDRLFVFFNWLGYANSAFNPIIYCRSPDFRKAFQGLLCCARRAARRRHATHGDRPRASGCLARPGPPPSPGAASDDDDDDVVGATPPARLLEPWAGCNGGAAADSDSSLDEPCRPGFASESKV

Structure (SMILES) | EC50 [nM]
CC(C)(C)NC[C@@H](O)c1cccc(-c2ccc(F)cc2)n1 [Compound 03-146] | 100 to 1000
Cc1ccccc1-c1cccc([C@H](O)CNC(C)(C)C)n1 [Compound 03-150] | > 1000

Same assay, conditions: B1-AR; CHO-K cells; read-out: Average EC50 [Receptor subtype: B1-AR; Cell type: CHO-K]

Structure (SMILES) | EC50 [nM]
CC(C)(C)NC[C@@H](O)c1cccc(-c2ccc(F)cc2)n1 [Compound 03-146] | 100 to 1000
Cc1ccccc1-c1cccc([C@H](O)CNC(C)(C)C)n1 [Compound 03-150] | > 1000

Biological target: β2 adrenergic receptor (Homo sapiens (Human), UniProt P07550)
Sequence (P07550 whole entry, species assumed): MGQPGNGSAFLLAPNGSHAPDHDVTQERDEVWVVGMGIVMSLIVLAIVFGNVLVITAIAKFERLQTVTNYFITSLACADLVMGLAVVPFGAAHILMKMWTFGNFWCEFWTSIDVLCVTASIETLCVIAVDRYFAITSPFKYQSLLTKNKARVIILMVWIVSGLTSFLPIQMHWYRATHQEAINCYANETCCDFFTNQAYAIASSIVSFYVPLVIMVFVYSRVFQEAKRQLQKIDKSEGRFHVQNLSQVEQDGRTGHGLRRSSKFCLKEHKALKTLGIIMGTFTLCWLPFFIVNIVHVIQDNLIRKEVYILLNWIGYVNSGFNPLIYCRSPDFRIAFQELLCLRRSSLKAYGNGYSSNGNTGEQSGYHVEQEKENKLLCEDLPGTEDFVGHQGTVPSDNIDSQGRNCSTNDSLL
Assay: cAMP Gs dynamic HTRF assay, β2 expressing CHO cells
Type: cell-based
Conditions: B2-AR; CHO-K1 (HitHunter); read-out: Average pEC50 [Receptor subtype: B2-AR; Cell type: CHO-K1 (HitHunter)] (converted)
Procedure: as §1, §2, §3, §4

Structure (SMILES) | EC50 [nM]
CC(C)(C)NC[C@@H](O)c1cccc(N2CC3CCCC3C2)n1 (some centres unmarked) [Compound 03-136] | 10 to 100
CCNc1ncccc1[C@@H](O)CNC(C)(C)C [Compound 03-73] | > 1000
CC(C)(C)NC[C@@H](O)c1ccc(C#N)cn1 [Compound 03-222] | > 1000
Cc1cnc(C2CCCC2)c([C@@H](O)CNC(C)(C)C)c1 [Compound 03-77] | > 1000
CC(C)(C)NC[C@H](O)c1cccc(C(=O)O)n1 [Compound 03-240] | > 1000
CC(C)(C)NC[C@H](O)c1cccnc1C1=CCCC1 [Compound 03-62] | > 1000
CC(C)(C)NC[C@H](O)c1cccnc1CC(F)(F)F [Compound 03-84] | > 1000
CC(C)(C)NC[C@H](O)c1cccnc1C(C)(C)C [Compound 03-79] | > 1000
CC(C)(C)NC[C@H](O)c1ccncc1C(F)(F)F [Compound 03-242] | > 1000
CC(C)Oc1cccc([C@H](O)CNC(C)(C)C)n1 [Compound 03-180] | 100 to 1000
CC(C)(C)NC[C@H](O)c1cccnc1C(F)(F)F [Compound 03-118] | 100 to 1000
CCOc1cccc([C@H](O)CNC(C)(C)C)n1 [Compound 03-178] | 100 to 1000
CC(C)(C)NC[C@H](O)c1ccnc(C(F)(F)F)c1 [Compound 03-227] | > 1000
Cc1cc([C@@H](O)CNC(C)(C)C)ccn1 [Compound 03-108] | > 1000
CC(=O)Nc1cccc([C@@H](O)CNC(C)(C)C)n1 [Compound 03-194] | > 1000
CN(C)c1ncccc1[C@@H](O)CNC(C)(C)C [Compound 03-56] | > 1000
CC(C)(C)NCC(O)c1cccnc1C(=O)O (centres unmarked) [Compound 03-113] | > 1000
CC(C)(C)NC[C@@H](O)c1cccc(NC2CCCC2)n1 [Compound 03-236] | 100 to 1000
CC(C)(C)NCC(O)c1cccnc1C(=O)NC(C)(C)C (centres unmarked) [Compound 03-112] | > 1000
CC(C)(C)NC[C@@H](O)c1ccc(C#N)c(C(F)(F)F)n1 [Compound 03-31] | > 1000
Cn1cc(-c2cccc([C@H](O)CNC(C)(C)C)n2)cn1 [Compound 03-224] | 100 to 1000
Cc1ncccc1[C@H](O)CNC(C)(C)C [Compound 03-116] | > 1000
OC(CNC1(C(F)(F)F)CC1)c1cccc(C(F)(F)F)n1 (centres unmarked) [Compound 03-218] | > 1000
CC(C)(C)N(O)C[C@H](O)c1cccc(C(N)=O)n1 [Compound 03-245] | > 1000
CC(C)(C)NC[C@H](O)c1cccnc1-c1cccc(F)c1 [Compound 03-61] | > 1000

Same assay, conditions: B2-AR; CHO-K cells; read-out: Average EC50 [Receptor subtype: B2-AR; Cell type: CHO-K]

Structure (SMILES) | EC50 [nM]
CC(C)(C)NC[C@@H](O)c1cccc(N2CC3CCCC3C2)n1 (some centres unmarked) [Compound 03-136] | 10 to 100
CC(C)Oc1cccc([C@H](O)CNC(C)(C)C)n1 [Compound 03-180] | 100 to 1000
CC(C)(C)NC[C@H](O)c1cccnc1C(F)(F)F [Compound 03-118] | 100 to 1000
CCOc1cccc([C@H](O)CNC(C)(C)C)n1 [Compound 03-178] | 100 to 1000
CC(C)(C)NC[C@H](O)c1nc(C(F)(F)F)cc2ccccc12 [Compound 03-171] | > 1000
CC(C)(C)NC[C@@H](O)c1nccc2ccccc12 [Compound 03-187] | > 1000
CN(C)c1ncccc1[C@@H](O)CNC(C)(C)C [Compound 03-56] | > 1000
CC(C)(C)NCC(O)c1cccnc1C(=O)O (centres unmarked) [Compound 03-113] | > 1000
CC(C)(C)NCC(O)c1cccnc1C(=O)NC(C)(C)C (centres unmarked) [Compound 03-112] | > 1000
CC(C)(C)NC[C@@H](O)c1ccc(C#N)c(C(F)(F)F)n1 [Compound 03-31] | > 1000
Cc1ncccc1[C@H](O)CNC(C)(C)C [Compound 03-116] | > 1000
CC(C)(C)NC[C@H](O)c1cccnc1-c1cccc(F)c1 [Compound 03-61] | > 1000

From patent US10947196B2, “Beta adrenergic agonist and methods of using the same” (CURASEN THERAPEUTICS, INC., priority 2019, dated 2021)
